Experimental data from BindingDB's records for doi:10.1016/j.bmcl.2004.04.032 (Bristol-Myers Squibb, 2004).

Target: T1, Thyroid hormone receptor alpha (Homo sapiens, UniProt P10827)
T1 sequence (P10827 whole entry): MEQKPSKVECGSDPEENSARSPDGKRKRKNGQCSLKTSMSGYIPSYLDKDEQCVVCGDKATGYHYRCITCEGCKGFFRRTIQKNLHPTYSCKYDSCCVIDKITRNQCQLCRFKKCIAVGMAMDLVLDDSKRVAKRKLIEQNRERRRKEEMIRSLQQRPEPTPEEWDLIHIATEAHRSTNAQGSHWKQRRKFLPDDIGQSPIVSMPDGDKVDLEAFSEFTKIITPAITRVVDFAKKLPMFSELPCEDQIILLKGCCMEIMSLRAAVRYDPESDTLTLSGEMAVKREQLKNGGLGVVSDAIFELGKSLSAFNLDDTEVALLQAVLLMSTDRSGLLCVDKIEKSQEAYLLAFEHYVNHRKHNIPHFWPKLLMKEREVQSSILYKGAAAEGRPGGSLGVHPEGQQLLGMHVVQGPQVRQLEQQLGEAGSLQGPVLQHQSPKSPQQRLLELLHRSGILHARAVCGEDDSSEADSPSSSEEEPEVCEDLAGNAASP
Test: TRalpha-Binding Assay.

SMILES | IC50 [nM] | IC50 (pH 7, 4 °C) [nM]
O=C(O)Cc1cc(Br)c(Oc2ccc(O)c(Oc3ccc(O)cc3)c2)c(Br)c1 [2-{3,5-dibromo-4-[4-hydroxy-3-(4-hydroxyphenoxy)phenoxy]phenyl}acetic acid] | 237 | 
O=C(O)Cc1cc(Cl)c(Oc2ccc(O)c(-c3cccc(OC(F)F)c3)c2)c(Cl)c1 [2-(3,5-dichloro-4-{3-[3-(difluoromethoxy)phenyl]-4-hydroxyphenoxy}phenyl)acetic acid] |  | 30
O=C(O)Cc1cc(Br)c(Oc2ccc(O)c(C(=O)NCCc3ccccc3)c2)c(Br)c1 [2-(3,5-dibromo-4-{4-hydroxy-3-[(2-phenylethyl)carbamoyl]phenoxy}phenyl)acetic acid] | 15 | 
COc1cccc(CCNC(=O)c2cc(Oc3c(Br)cc(CC(=O)O)cc3Br)ccc2O)c1 [2-[3,5-dibromo-4-(4-hydroxy-3-{[2-(3-methoxyphenyl)ethyl]carbamoyl}phenoxy)phenyl]acetic acid] | 93 | 
O=C(O)Cc1cc(Cl)c(Oc2ccc(O)c(-c3cccc(C(F)(F)F)c3)c2)c(Cl)c1 [2-(3,5-dichloro-4-{4-hydroxy-3-[3-(trifluoromethyl)phenyl]phenoxy}phenyl)acetic acid] |  | 40
O=C(O)Cc1cc(Br)c(Oc2ccc(O)c(Oc3ccccc3C(F)(F)F)c2)c(Br)c1 [2-(3,5-dibromo-4-{4-hydroxy-3-[2-(trifluoromethyl)phenoxy]phenoxy}phenyl)acetic acid] | 244 | 
O=C(O)Cc1cc(Cl)c(Oc2ccc(O)c(-c3ccccc3C(F)(F)F)c2)c(Cl)c1 [2-(3,5-dichloro-4-{4-hydroxy-3-[2-(trifluoromethyl)phenyl]phenoxy}phenyl)acetic acid] |  | 18
O=C(O)Cc1cc(Br)c(Oc2ccc(O)c(Oc3cccc(-c4ccccc4)c3)c2)c(Br)c1 [2-{3,5-dibromo-4-[4-hydroxy-3-(3-phenylphenoxy)phenoxy]phenyl}acetic acid] | 499 | 
O=C(O)Cc1cc(Cl)c(Oc2ccc(O)c(C(=O)NCCc3ccccc3)c2)c(Cl)c1 [2-(3,5-dichloro-4-{4-hydroxy-3-[(2-phenylethyl)carbamoyl]phenoxy}phenyl)acetic acid] | 127 | 
COc1ccc(CCNC(=O)c2cc(Oc3c(Br)cc(CC(=O)O)cc3Br)ccc2O)cc1 [2-[3,5-dibromo-4-(4-hydroxy-3-{[2-(4-methoxyphenyl)ethyl]carbamoyl}phenoxy)phenyl]acetic acid] | 228 | 
O=C(O)Cc1cc(Br)c(Oc2ccc(O)c(Oc3ccccc3)c2)c(Br)c1 [2-[3,5-dibromo-4-(4-hydroxy-3-phenoxyphenoxy)phenyl]acetic acid] | 123 | 
O=C(O)Cc1cc(Cl)c(Oc2ccc(O)c(C3CCCCC3)c2)c(Cl)c1 [2-[3,5-dichloro-4-(3-cyclohexyl-4-hydroxyphenoxy)phenyl]acetic acid] |  | 258
O=C(O)Cc1cc(Br)c(Oc2ccc(O)c(Oc3ccc(C(F)(F)F)cc3)c2)c(Br)c1 [2-(3,5-dibromo-4-{4-hydroxy-3-[4-(trifluoromethyl)phenoxy]phenoxy}phenyl)acetic acid] | 326 | 
O=C(O)Cc1cc(Br)c(Oc2ccc(O)c(C(=O)Nc3ccccc3)c2)c(Br)c1 [2-{3,5-dibromo-4-[4-hydroxy-3-(phenylcarbamoyl)phenoxy]phenyl}acetic acid] | 424 | 
O=C(O)Cc1cc(Br)c(Oc2ccc(O)c(C(=O)NCCCCc3ccccc3)c2)c(Br)c1 [2-(3,5-dibromo-4-{4-hydroxy-3-[(4-phenylbutyl)carbamoyl]phenoxy}phenyl)acetic acid] | 281 | 
O=C(O)Cc1cc(Br)c(Oc2ccc(O)c(C(=O)NCC(c3ccccc3)c3ccccc3)c2)c(Br)c1 [2-(3,5-dibromo-4-{3-[(2,2-diphenylethyl)carbamoyl]-4-hydroxyphenoxy}phenyl)acetic acid] | 18 | 
O=C(O)Cc1cc(Br)c(Oc2ccc(O)c(Oc3cccc(C(F)(F)F)c3)c2)c(Br)c1 [2-(3,5-dibromo-4-{4-hydroxy-3-[3-(trifluoromethyl)phenoxy]phenoxy}phenyl)acetic acid] | 50 | 
O=C(O)Cc1cc(Br)c(Oc2ccc(O)c(Oc3ccccc3O)c2)c(Br)c1 [2-{3,5-dibromo-4-[4-hydroxy-3-(2-hydroxyphenoxy)phenoxy]phenyl}acetic acid] | 1470 | 
COc1ccccc1CCNC(=O)c1cc(Oc2c(Br)cc(CC(=O)O)cc2Br)ccc1O [2-[3,5-dibromo-4-(4-hydroxy-3-{[2-(2-methoxyphenyl)ethyl]carbamoyl}phenoxy)phenyl]acetic acid] | 96 | 
O=C(O)Cc1cc(Cl)c(Oc2ccc(O)c(-c3cccc(OC(F)(F)F)c3)c2)c(Cl)c1 [2-(3,5-dichloro-4-{4-hydroxy-3-[3-(trifluoromethoxy)phenyl]phenoxy}phenyl)acetic acid] |  | 100
O=C(O)Cc1cc(Br)c(Oc2ccc(O)c(C(=O)NCCc3ccccn3)c2)c(Br)c1 [2-[3,5-dibromo-4-(4-hydroxy-3-{[2-(pyridin-2-yl)ethyl]carbamoyl}phenoxy)phenyl]acetic acid] | 1130 | 
O=C(O)Cc1cc(Cl)c(Oc2ccc(O)c(-c3ccc(C(F)(F)F)cc3)c2)c(Cl)c1 [2-(3,5-dichloro-4-{4-hydroxy-3-[4-(trifluoromethyl)phenyl]phenoxy}phenyl)acetic acid] |  | 515
O=C(O)Cc1cc(Br)c(Oc2ccc(O)c(C(=O)NCCCc3ccccc3)c2)c(Br)c1 [2-(3,5-dibromo-4-{4-hydroxy-3-[(3-phenylpropyl)carbamoyl]phenoxy}phenyl)acetic acid] | 203 | 
CC(C)c1cccc(-c2cc(Oc3c(Cl)cc(CC(=O)O)cc3Cl)ccc2O)c1 [2-(3,5-dichloro-4-{4-hydroxy-3-[3-(propan-2-yl)phenyl]phenoxy}phenyl)acetic acid] |  | 124
O=C(O)Cc1cc(Cl)c(Oc2ccc(O)c(-c3ccccc3)c2)c(Cl)c1 [2-[3,5-dichloro-4-(4-hydroxy-3-phenylphenoxy)phenyl]acetic acid] |  | 152
O=C(O)Cc1cc(Br)c(Oc2ccc(O)c(Oc3cccc(O)c3)c2)c(Br)c1 [2-{3,5-dibromo-4-[4-hydroxy-3-(3-hydroxyphenoxy)phenoxy]phenyl}acetic acid] | 549 | 

More lines, now with the values ahead:

IC50 [nM] | IC50 (pH 7, 4 °C) [nM] | SMILES
 | 1050 | O=C(O)Cc1cc(Cl)c(Oc2ccc(O)c(-c3ccccc3O)c2)c(Cl)c1 [2-{3,5-dichloro-4-[4-hydroxy-3-(2-hydroxyphenyl)phenoxy]phenyl}acetic acid]
 | 297 | COc1cccc(-c2cc(Oc3c(Cl)cc(CC(=O)O)cc3Cl)ccc2O)c1 [2-{3,5-dichloro-4-[4-hydroxy-3-(3-methoxyphenyl)phenoxy]phenyl}acetic acid]
 | 454 | O=C(O)Cc1cc(Cl)c(Oc2ccc(O)c(-c3cccc(-c4ccccc4)c3)c2)c(Cl)c1 [2-{3,5-dichloro-4-[4-hydroxy-3-(3-phenylphenyl)phenoxy]phenyl}acetic acid]
 | 558 | O=C(O)Cc1cc(Cl)c(Oc2ccc(O)c(-c3nccs3)c2)c(Cl)c1 [2-{3,5-dichloro-4-[4-hydroxy-3-(1,3-thiazol-2-yl)phenoxy]phenyl}acetic acid]
 | 819 | O=C(O)Cc1cc(Cl)c(Oc2ccc(O)c(-c3cccnc3)c2)c(Cl)c1 [2-{3,5-dichloro-4-[4-hydroxy-3-(pyridin-3-yl)phenoxy]phenyl}acetic acid]
 | 1520 | O=C(O)Cc1cc(Cl)c(Oc2ccc(O)c(-c3ccccn3)c2)c(Cl)c1 [2-{3,5-dichloro-4-[4-hydroxy-3-(pyridin-2-yl)phenoxy]phenyl}acetic acid]
84 |  | O=C(O)Cc1cc(Br)c(Oc2ccc(O)c(C(=O)NCc3ccccc3)c2)c(Br)c1 [2-{4-[3-(benzylcarbamoyl)-4-hydroxyphenoxy]-3,5-dibromophenyl}acetic acid]
 | 847 | O=C(O)Cc1cc(Cl)c(Oc2ccc(O)c(-c3ccc(O)cc3)c2)c(Cl)c1 [2-{3,5-dichloro-4-[4-hydroxy-3-(4-hydroxyphenyl)phenoxy]phenyl}acetic acid]
 | 269 | O=C(O)Cc1cc(Cl)c(Oc2ccc(O)c(-c3cncnc3)c2)c(Cl)c1 [2-{3,5-dichloro-4-[4-hydroxy-3-(pyrimidin-5-yl)phenoxy]phenyl}acetic acid]
 | 145 | O=C(O)Cc1cc(Cl)c(Oc2ccc(O)c(-c3ccncc3)c2)c(Cl)c1 [2-{3,5-dichloro-4-[4-hydroxy-3-(pyridin-4-yl)phenoxy]phenyl}acetic acid]
 | 13 | CCc1cccc(-c2cc(Oc3c(Cl)cc(CC(=O)O)cc3Cl)ccc2O)c1 [2-{3,5-dichloro-4-[3-(3-ethylphenyl)-4-hydroxyphenoxy]phenyl}acetic acid]
 | 1160 | O=C(O)Cc1cc(Cl)c(Oc2ccc(O)c(-c3cccc(O)c3)c2)c(Cl)c1 [2-{3,5-dichloro-4-[4-hydroxy-3-(3-hydroxyphenyl)phenoxy]phenyl}acetic acid]
